28 compounds from patent publication US11236069B2, “KIF18A inhibitors” (AMGEN INC., priority 2018, dated 2022) can be followed below.

pIC50: −log10 of the molar value.

Recombinant human KIF18A (1-467 His-tagged) protein, sequence (Q8NI77 1-467): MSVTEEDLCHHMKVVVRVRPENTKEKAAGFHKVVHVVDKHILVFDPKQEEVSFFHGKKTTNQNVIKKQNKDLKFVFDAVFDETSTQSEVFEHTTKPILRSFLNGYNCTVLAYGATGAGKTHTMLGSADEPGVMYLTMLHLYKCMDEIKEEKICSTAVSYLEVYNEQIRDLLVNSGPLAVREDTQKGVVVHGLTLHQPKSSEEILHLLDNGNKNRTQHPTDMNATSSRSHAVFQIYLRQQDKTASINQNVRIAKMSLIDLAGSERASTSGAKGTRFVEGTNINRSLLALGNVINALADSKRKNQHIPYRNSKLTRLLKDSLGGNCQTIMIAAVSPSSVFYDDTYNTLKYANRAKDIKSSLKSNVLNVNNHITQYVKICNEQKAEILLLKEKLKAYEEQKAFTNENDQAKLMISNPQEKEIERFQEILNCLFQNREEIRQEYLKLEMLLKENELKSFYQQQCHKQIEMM
Recombinant human KIF18A (1-467 His-tagged) protein, sequence (P02550 whole entry partner): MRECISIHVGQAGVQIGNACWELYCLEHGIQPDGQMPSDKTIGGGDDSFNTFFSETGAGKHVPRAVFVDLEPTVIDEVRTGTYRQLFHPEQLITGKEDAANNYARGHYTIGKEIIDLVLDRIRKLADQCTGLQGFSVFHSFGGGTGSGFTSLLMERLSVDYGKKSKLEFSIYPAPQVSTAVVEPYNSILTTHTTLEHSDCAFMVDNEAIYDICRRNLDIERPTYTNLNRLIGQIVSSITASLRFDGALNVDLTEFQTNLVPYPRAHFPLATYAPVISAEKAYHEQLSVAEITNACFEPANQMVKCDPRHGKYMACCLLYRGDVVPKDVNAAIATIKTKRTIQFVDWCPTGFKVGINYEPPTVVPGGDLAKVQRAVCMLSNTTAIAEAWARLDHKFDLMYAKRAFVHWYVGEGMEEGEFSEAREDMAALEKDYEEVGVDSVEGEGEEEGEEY
Recombinant human KIF18A (1-467 His-tagged) protein, sequence (P02554 whole entry partner): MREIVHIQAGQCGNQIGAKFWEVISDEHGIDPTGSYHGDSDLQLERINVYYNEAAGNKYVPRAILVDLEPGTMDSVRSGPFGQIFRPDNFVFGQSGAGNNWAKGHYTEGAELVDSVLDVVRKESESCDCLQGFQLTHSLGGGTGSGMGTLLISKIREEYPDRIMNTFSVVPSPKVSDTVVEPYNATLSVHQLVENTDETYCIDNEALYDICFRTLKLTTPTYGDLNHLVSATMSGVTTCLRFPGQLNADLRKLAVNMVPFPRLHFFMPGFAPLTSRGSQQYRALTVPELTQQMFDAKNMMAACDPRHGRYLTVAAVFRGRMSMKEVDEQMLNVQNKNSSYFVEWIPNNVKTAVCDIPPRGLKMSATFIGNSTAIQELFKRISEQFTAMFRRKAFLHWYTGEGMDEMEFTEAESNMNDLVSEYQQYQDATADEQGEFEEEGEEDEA

The assay has as its target Recombinant human KIF18A (1-467 His-tagged) protein (Homo sapiens (Human), UniProt Q8NI77). The assay is described as follows: KIF18A Enzyme Assay: microtubule-stimulated ATPase activity (ADP-Glo). Particulars: read-out: KIF18A ATPase IC50; 30 nM KIF18A, 30 μg/mL pig microtubules, ATP at Km 75 μM, ADP-Glo luminescence.
Source text: KIF18A Enzyme Assay: Microtubule-stimulated ATPase activity assay is used to measure KIF18A enzyme activity after treatment with compound. Compounds were 2-fold serially diluted in DMSO (Sigma Inc) over 22-point concentration range. […] The assay measures ADP formed from the ATPase reaction.
Take `Cc1cc(NC(=O)c2ccc(S(C)(=O)=O)cc2N2CCC3(CC2)CC3)nc(N2CCC(F)(F)CC2)n1` [Example 2-6, N-(2-(4,4-Difluoropiperidin-1-yl)-6-methylpyrimidin-4-yl)-4-(methylsulfonyl)-2-(6-azaspiro[2.5]octan-6-yl)benzamide]: the pIC50 is 6.59.
As for `Cc1cc(NC(=O)c2ccc(S(=O)(=O)N[C@H](C)CO)cc2N2CCC3(CC2)CC3)nc(N2CCC(F)(F)CC2)n1` [Example 17-6, (R)-N-(2-(4,4-Difluoropiperidin-1-yl)-6-methylpyrimidin-4-yl)-4-(N-(1-hydroxypropan-2-yl)sulfamoyl)-2-(6-azaspiro[2.5]octan-6-yl)benzamide], the figure is 6.90.
As for `Cc1cc(NC(=O)c2ccc(NS(=O)(=O)CCO)cc2N2CCC3(CC2)CC3)nc(N2CCC[C@@](C)(F)C2)n1` [Example 11-55, (R)-N-(2-(3-Fluoro-3-methylpiperidin-1-yl)-6-methylpyrimidin-4-yl)-4-((2-hydroxyethyl)sulfonamido)-2-(6-azaspiro[2.5]octan-6-yl)benzamide], the figure is 7.39; as for `Cc1cc(NC(=O)c2cc(F)c(NS(=O)(=O)[C@H](C)CO)cc2N2CCC3(CC2)CC3)nc(N2CCC(F)(F)CC2)n1` (single isomer, unassigned) [Example 8-1], 7.04; as for `Cc1cc(NC(=O)c2ccc(S(=O)(=O)N[C@@H](C)CO)cc2N2CCC3(CC2)CC3)nc(N2CCC(F)(F)CC2)n1` [Example 17-7, (S)-N-(2-(4,4-Difluoropiperidin-1-yl)-6-methylpyrimidin-4-yl)-4-(N-(1-hydroxypropan-2-yl)sulfamoyl)-2-(6-azaspiro[2.5]octan-6-yl)benzamide], 6.83.
For `Cc1cc(NC(=O)c2ccc(NS(=O)(=O)C[C@H](C)O)cc2N2CCC3(CC2)CC3)nc(OCCC(F)(F)F)n1` [Example 6-28-2, (S)-4-((2-Hydroxypropyl)sulfonamido)-N-(6-methyl-2-(3,3,3-trifluoropropoxy)pyrimidin-4-yl)-2-(6-azaspiro[2.5]octan-6-yl)benzamide] the value was 7.15; for `C[C@@H]1CN(c2nccc(NC(=O)c3ccc(S(C)(=O)=O)cc3N3CCC4(CC3)CC4)n2)CCO1` [Example 2-7, (R)-N-(2-(2-Methylmorpholino)pyrimidin-4-yl)-4-(methylsulfonyl)-2-(6-azaspiro[2.5]octan-6-yl)benzamide], 6.62; for `Cc1cc(NC(=O)c2ccc(NS(=O)(=O)CCO)cc2N2CCC3(CCC3)CC2)nc(N2CCC(F)(F)CC2)n1` [Example 11-40, N-(2-(4,4-Difluoropiperidin-1-yl)-6-methylpyrimidin-4-yl)-4-((2-hydroxyethyl)sulfonamido)-2-(7-azaspiro[3.5]nonan-7-yl)benzamide], 6.96.
On to `Cc1cc(NC(=O)c2ccc(S(=O)(=O)NCC(C)(C)O)cc2N2CCC3(CC2)CC3)nc(N2CCC(F)(F)CC2)n1` [Example 17-8, N-(2-(4,4-Difluoropiperidin-1-yl)-6-methylpyrimidin-4-yl)-4-(N-(2-hydroxy-2-methylpropyl)sulfamoyl)-2-(6-azaspiro[2.5]octan-6-yl)benzamide], for which the pIC50 was 6.54.
For `Cc1cc(NC(=O)c2ccc(NS(=O)(=O)CCO)cc2N2CCC3(CC2)CC3)nc(N2CC3(COC3)C2)n1` [Example 11-8, 4-((2-Hydroxyethyl)sulfonamido)-N-(6-methyl-2-(2-oxa-6-azaspiro[3.3]heptan-6-yl)pyrimidin-4-yl)-2-(6-azaspiro[2.5]octan-6-yl)benzamide] the value was 6.19; for `Cc1cc(NC(=O)c2ccc(NS(=O)(=O)CCO)cc2N2CCC3(CC2)CC3)nc(N2CCC(C)(F)CC2)n1` [Example 11-52, N-(2-(4-Fluoro-4-methylpiperidin-1-yl)-6-methylpyrimidin-4-yl)-4-((2-hydroxyethyl)sulfonamido)-2-(6-azaspiro[2.5]octan-6-yl)benzamide], 7.20; for `Cc1cc(NC(=O)c2ccc(NS(=O)(=O)C[C@H](C)O)cc2N2CCC3(CC2)CC3)nc(N2CC(F)(F)C2)n1` (single isomer, unassigned) [Example 10-2], 7.14.
As for `CCS(=O)(=O)Nc1ccc(C(=O)Nc2cc(C)nc(N3CCC(F)CC3)n2)c(N2CCC3(CC2)CC3)c1` [Example 11-82, 4-(Ethylsulfonamido)-N-(2-(4-fluoropiperidin-1-yl)-6-methylpyrimidin-4-yl)-2-(6-azaspiro[2.5]octan-6-yl)benzamide], the figure is 7.29; as for `Cc1cc(NC(=O)c2ccc([S@@](=N)(=O)C3CC3)cc2N2CCC3(CC2)CC3)nc(N2CCC(F)(F)CC2)n1` (single isomer, unassigned) [Example 18-2, 2-(6-Azaspiro[2.5]octan-6-yl)-4-(S-cyclopropylsulfonimidoyl)-N-(2-(4,4-difluoro-1-piperidinyl)-6-methyl-4-pyrimidinyl)benzamide], 7.24; as for `Cc1cc(NC(=O)c2ccc(NS(=O)(=O)CCCO)cc2N2CCC3(CC2)CC3)nc(N2CCO[C@H](C)C2)n1` [Example 6-8, (R)-4-((3-Hydroxypropyl)sulfonamido)-N-(6-methyl-2-(2-methylmorpholino)pyrimidin-4-yl)-2-(6-azaspiro[2.5]octan-6-yl)benzamide], 6.97.
For `Cc1cc(NC(=O)c2ccc(NS(=O)(=O)CCO)cc2N2CCC3(CC2)CC3)nc(N2CCC[C@@H]3C[C@@H]32)n1` [Example 11-44, N-(2-((1S,6R)-2-Azabicyclo[4.1.0]heptan-2-yl)-6-methylpyrimidin-4-yl)-4-((2-hydroxyethyl)sulfonamido)-2-(6-azaspiro[2.5]octan-6-yl)benzamide] the value was 7.48.
On to `Cc1cc(NC(=O)c2ccc(NS(=O)(=O)CCO)cc2N2CCC3(CC2)CC3)nc(N2CC(O)(C(F)(F)F)C2)n1` [Example 11-18, N-(2-(3-Hydroxy-3-(trifluoromethyl)azetidin-1-yl)-6-methylpyrimidin-4-yl)-4-((2-hydroxyethyl)sulfonamido)-2-(6-azaspiro[2.5]octan-6-yl)benzamide], for which the pIC50 is 7.19.
As for `Cc1cc(NC(=O)c2ccc(N3CCOCS3(=O)=O)cc2N2CCC3(CC2)CC3)nc(N2CCC(F)(F)CC2)n1` [Example 6-9, N-(2-(4,4-Difluoropiperidin-1-yl)-6-methylpyrimidin-4-yl)-4-(3,3-dioxido-1,3,4-oxathiazinan-4-yl)-2-(6-azaspiro[2.5]octan-6-yl)benzamide], the figure is 6.61.
`Cc1cc(NC(=O)c2ccc(NS(C)(=O)=O)cc2N2CCC3(CC2)CC3)nc(N2CCC(F)CC2)n1` [Example 11-81, N-(2-(4-Fluoropiperidin-1-yl)-6-methylpyrimidin-4-yl)-4-(methylsulfonamido)-2-(6-azaspiro[2.5]octan-6-yl)benzamide]: the negative logarithm of the IC50 (pIC50) is 7.22.
For `Cc1cc(NC(=O)c2cc(F)c(NS(=O)(=O)CCO)cc2N2CCC3(CC2)CC3)nc(N2CCC(F)(F)CC2)n1` [Example 11-67, N-(2-(4,4-Difluoropiperidin-1-yl)-6-methylpyrimidin-4-yl)-5-fluoro-4-((2-hydroxyethyl)sulfonamido)-2-(6-azaspiro[2.5]octan-6-yl)benzamide] the value was 7.47; for `Cc1cc(NC(=O)c2ccc(S(=O)(=O)C3COC3)cc2N2CCC3(CC2)CC3)nc(N2CCC(F)(F)CC2)n1` [Example 14-1, N-(2-(4,4-Difluoropiperidin-1-yl)-6-methylpyrimidin-4-yl)-4-(oxetan-3-ylsulfonyl)-2-(6-azaspiro[2.5]octan-6-yl)benzamide], 6.74.
With `C[C@@H]1CN(c2nccc(NC(=O)c3ccc(NS(=O)(=O)[C@@H](C)CO)cc3N3CCC4(CC3)CC4)n2)CCO1` [Example 6-24-1, 4-(((S)-2-Hydroxy-1-methylethyl)sulfonamido)-N-(2-((R)-2-methylmorpholino)pyrimidin-4-yl)-2-(6-azaspiro[2.5]octan-6-yl)benzamide], the negative logarithm of the IC50 (pIC50) was 7.76.
For `Cc1cc(NC(=O)c2ccc(S(=O)(=O)C3CN(C)C3)cc2N2CCC3(CC2)CC3)nc(N2CCC(F)(F)CC2)n1` [Example 22, N-(2-(4,4-Difluoropiperidin-1-yl)-6-methylpyrimidin-4-yl)-4-((1-methylazetidin-3-yl)sulfonyl)-2-(6-azaspiro[2.5]octan-6-yl)benzamide], the negative logarithm of the IC50 (pIC50) was 6.39.
Consider `Cc1cc(NC(=O)c2ccc(S(=N)(=O)C3CC3)cc2N2CCC3(CC2)CC3)nc(N2CC(F)(F)C2)n1` (stereo not shown) [Example 19-9, 4-(Cyclopropanesulfonimidoyl)-N-(2-(3,3-difluoroazetidin-1-yl)-6-methylpyrimidin-4-yl)-2-(6-azaspiro[2.5]octan-6-yl)benzamide], for which the negative logarithm of the IC50 (pIC50) was 7.16.
For `Cc1cc(NC(=O)c2ccc(S(=O)(=O)NC3(C)COC3)cc2N2CCC3(CC2)CC3)nc(C(C)(C)O)n1` [Example 2-1, N-(2-(2-Hydroxypropan-2-yl)-6-methylpyrimidin-4-yl)-4-(N-(3-methyloxetan-3-yl)sulfamoyl)-2-(6-azaspiro[2.5]octan-6-yl)benzamide] the value was 7.19; for `Cc1cc(NC(=O)c2ccc(NS(=O)(=O)CCO)cc2N2CCC3(CC2)CC3)c(F)c(N2CCC(F)(F)CC2)n1` [Example 11-64, N-(2-(4,4-Difluoropiperidin-1-yl)-3-fluoro-6-methylpyridin-4-yl)-4-((2-hydroxyethyl)sulfonamido)-2-(6-azaspiro[2.5]octan-6-yl)benzamide], 7.27; for `Cc1cc(NC(=O)c2ccc([S@](=N)(=O)C3CC3)cc2N2CCC3(CC2)CC3)nc(N2CCC(F)(F)CC2)n1` (single isomer, unassigned) [Example 18-1, 2-(6-Azaspiro[2.5]octan-6-yl)-4-(R-cyclopropylsulfonimidoyl)-N-(2-(4,4-difluoro-1-piperidinyl)-6-methyl-4-pyrimidinyl)benzamide], 7.19.
Take `Cc1cc(NC(=O)c2ccc(NS(=O)(=O)CCO)cc2N2CCC3(CC2)CC3)nc(N2CC(C(C)(C)O)C2)n1` [Example 11-14, 4-((2-Hydroxyethyl)sulfonamido)-N-(2-(3-(2-hydroxypropan-2-yl)azetidin-1-yl)-6-methylpyrimidin-4-yl)-2-(6-azaspiro[2.5]octan-6-yl)benzamide]: the pIC50 was 6.76.

As usually defined, the pIC50 is −log10 of the IC50, conventionally taken in molar units.
